Legend:
Assay in all cases: relative viability (nuclei count vs DMSO), 5 days (fraction); higher = more cells survive
R406 + Luminespib = compound: COc1cc(Nc2ncc(F)c(Nc3ccc4c(n3)NC(=O)C(C)(C)O4)n2)cc(OC)c1OC [R406] + CCNC(=O)c1noc(-c2cc(C(C)C)c(O)cc2O)c1-c1ccc(CN2CCOCC2)cc1 [Luminespib] (partner 0.01 µM)
Procedure, shortened: (§1)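 One day after seeding in 1536-well plates, lung cancer cell lines were dosed by pin tool. Dosing was either single-drug or a fixed anchor-drug dose plus five library-drug doses (not always all listed) in √10 steps. After 5 days, nuclei were stained in one fix-and-stain step and counted on 4× images, and relative viability is the nuclei count of treated wells over that of vehicle wells, given as the median of duplicate plates.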

Daporinad + Olaparib = compound: O=C(/C=C/c1cccnc1)NCCCCC1CCN(C(=O)c2ccccc2)CC1 [Daporinad] + O=C(c1cc(Cc2n[nH]c(=O)c3ccccc23)ccc1F)N1CCN(C(=O)C2CC2)CC1 [Olaparib] (partner 8 µM)
Procedure, shortened: as §1

Daporinad + Pictilisib = compound: O=C(/C=C/c1cccnc1)NCCCCC1CCN(C(=O)c2ccccc2)CC1 [Daporinad] + CS(=O)(=O)N1CCN(Cc2cc3nc(-c4cccc5[nH]ncc45)nc(N4CCOCC4)c3s2)CC1 [Pictilisib] (partner 1 µM)
Procedure, shortened: as §1

R406 + Trametinib = compound: COc1cc(Nc2ncc(F)c(Nc3ccc4c(n3)NC(=O)C(C)(C)O4)n2)cc(OC)c1OC [R406] + CC(=O)Nc1cccc(-n2c(=O)n(C3CC3)c(=O)c3c(Nc4ccc(I)cc4F)n(C)c(=O)c(C)c32)c1 [Trametinib] (partner 0.02 µM)
Procedure, shortened: as §1

Cell Line | relative viability (R406 + Luminespib; first compound 0.08 µM) | relative viability (R406 + Luminespib; first compound 0.253 µM) | relative viability (R406 + Luminespib; first compound 0.8 µM) | relative viability (R406 + Luminespib; first compound 2.53 µM) | relative viability (R406 + Luminespib; first compound 8 µM) | relative viability (Daporinad + Olaparib; first compound 0.0005 µM) | relative viability (Daporinad + Olaparib; first compound 0.001581 µM) | relative viability (Daporinad + Olaparib; first compound 0.005 µM) | relative viability (Daporinad + Olaparib; first compound 0.01581 µM) | relative viability (Daporinad + Pictilisib; first compound 0.0005 µM) | relative viability (Daporinad + Pictilisib; first compound 0.001581 µM) | relative viability (Daporinad + Pictilisib; first compound 0.005 µM) | relative viability (Daporinad + Pictilisib; first compound 0.01581 µM) | relative viability (R406 + Trametinib; first compound 0.08 µM) | relative viability (R406 + Trametinib; first compound 0.253 µM) | relative viability (R406 + Trametinib; first compound 0.8 µM) | relative viability (R406 + Trametinib; first compound 2.53 µM) | relative viability (R406 + Trametinib; first compound 8 µM)
NCI-H1734 | 0.196 | 0.193 | 0.207 | 0.189 | 0.16 | 0.567 | 0.443 | 0.327 | 0.241 | 0.454 | 0.529 | 0.557 | 0.431 | 0.637 | 0.685 | 0.715 | 0.575 | 0.383
NCI-H1755 | 0.351 | 0.459 | 0.255 | 0.211 | 0.334 | 0.838 | 0.891 | 0.84 | 0.843 | 0.442 | 0.44 | 0.452 | 0.457 | 0.679 | 0.788 | 0.714 | 0.704 | 0.465
NCI-H1792 | 0.423 | 0.424 | 0.402 | 0.278 | 0.176 | 0.466 | 0.493 | 0.228 | 0.222 | 0.212 | 0.317 | 0.25 | 0.377 | 0.428 | 0.443 | 0.427 | 0.178 | 0.0999
NCI-H1793 | 0.145 | 0.148 | 0.18 | 0.128 | 0.136 | 0.829 | 0.952 | 0.81 | 0.835 | 0.221 | 0.354 | 0.38 | 0.32 | 0.448 | 0.537 | 0.411 | 0.422 | 0.16
NCI-H1915 | 0.819 | 0.886 | 0.982 |  | 0.624 | 0.265 | 0.247 | 0.193 | 0.184 | 0.967 | 1.15 | 1.13 | 0.929 | 0.324 | 0.334 | 0.313 | 0.268 | 0.197
NCI-H1944 | 0.686 | 0.805 | 0.759 | 0.369 | 0.517 | 0.407 | 0.393 | 0.42 | 0.386 | 0.366 | 0.346 | 0.389 | 0.34 | 0.401 | 0.453 | 0.364 | 0.385 | 0.319
NCI-H1975 | 0.25 | 0.227 | 0.187 | 0.143 | 0.116 | 0.818 | 0.764 | 0.728 | 0.611 | 0.267 | 0.333 | 0.315 | 0.304 | 0.315 | 0.307 | 0.287 | 0.112 | 0.201
NCI-H1993 | 0.78 | 1.11 | 0.988 | 0.359 | 0.577 | 0.899 | 1.02 | 0.948 | 1.05 | 0.925 | 0.684 | 0.798 | 0.869 | 0.442 | 0.542 | 0.518 | 0.679 | 0.573
NCI-H2009 | 1.05 | 1.09 | 1.04 | 0.884 | 0.993 | 0.596 | 0.58 | 0.268 | 0.219 | 0.784 | 1 | 0.938 | 0.661 | 0.275 | 0.275 | 0.323 | 0.213 | 0.136
NCI-H2023 | 0.807 | 0.608 | 0.801 | 0.41 | 0.144 | 0.51 | 0.497 | 0.414 | 0.277 | 0.252 | 0.3 | 0.245 | 0.278 | 0.499 | 0.562 | 0.582 | 0.286 | 0.129
NCI-H2085 | 0.437 | 0.353 | 0.525 | 0.319 | 0.279 | 0.673 |  | 0.629 | 0.629 | 0.438 | 0.463 | 0.526 | 0.554 | 0.591 | 0.634 | 0.545 | 0.498 | 0.226
NCI-H2087 | 0.209 | 0.123 | 0.162 |  | 0.124 | 0.69 | 0.575 | 0.205 | 0.236 | 0.877 | 1.1 | 0.951 | 0.907 | 0.227 | 0.218 | 0.197 | 0.194 | 0.156
NCI-H2126 | 0.826 | 0.868 | 0.796 | 0.597 | 0.437 | 0.945 | 0.953 | 0.883 | 0.863 | 0.529 | 0.516 | 0.485 | 0.486 | 0.609 | 0.535 | 0.511 | 0.519 | 0.522
NCI-H2170 | 0.641 | 0.622 | 0.856 | 0.366 | 0.574 | 0.56 | 0.57 | 0.609 | 0.337 | 0.315 | 0.331 | 0.301 | 0.407 | 0.923 | 0.99 | 1.02 | 0.647 | 0.842
NCI-H2228 | 0.145 | 0.213 | 0.103 | 0.0925 | 0.0961 | 0.459 | 0.715 | 0.708 | 0.584 | 0.342 | 0.358 | 0.495 | 0.464 | 0.501 | 0.503 | 0.731 | 0.0769 | 0.432

Source: the supplement of paper PMC10307832
